# Test results taken from publication PMC11284088, “Synthesis and biochemical characterization of naphthoquinone derivatives targeting bacterial histidine kinases” (The Journal of Antibiotics, 2024).
# Entries after “also recorded” stand apart in the source; their conditions may differ. Read-outs that look alike come from different tables or passages of the source.
# Columns and labels:
# WalK = target: T1, WalK (Bacillus subtilis, UniProt Q45614); experiment: Inhibition of WalK autophosphorylation; type: biochemical; design: key to WalK: WalK + inhibitory effect against WalK; details: for IC50: against WalK from B. subtilis, autophosphorylation, N.I. = no inhibition, read-out: IC50; for inhibitory activity against WalK: in words; for WalK: summary class
# T1 construct: His6 (N); made in house; host or cells: E. coli BL21(DE3)
# Procedure: (§1) Autophosphorylation of WalK was conducted at 0.5 or 1 µM in a reaction mixture comprising 50 mM Tris-HCl (pH 8.5), 100 mM KCl, 5 mM MgCl2, 100 mM NH4Cl, 5% DMSO, and 40 µM ATP. The total reaction volume was 40 µl, and the incubation lasted for 30 min at 25 °C. To terminate the reaction, 40 µl of 2 × SDS-PAGE sample buffer was added, followed by a 10-min incubation at 37 °C. Subsequently, SDS-PAGE (10% acrylamide) was performed, and the samples were subjected to Western blotting using a PVDF membrane (Bio-Rad 1620177). The primary antibody used was anti-N3-phosphohistidine antibody (clone SC56-2) (EDM Millipore Corp), and the secondary antibody was goat anti-rabbit IgG-HRP (Abcam). A 2% bovine serum albumin (Sigma-Aldrich) solution served as the blocking reagent. Signals originating from phosphorylated HKs were detected using the HRP substrate (Immobilon Western Chemiluminescent HRP substrate, Millipore) and the Multi Imager II Multi Box (Bio Tools). Signal intensities were quantified with Image Analysis Software CS Analyzer 4 (ATTO). IC50 values (50% inhibitory concentrations) were determined using Prism 7 software (GraphPad).
# (§2) In the assessment of naphthoquinone derivatives, the initial screening for inhibitory activity against WalK autophosphorylation was conducted at 50 or 100 µg ml^−1. Compounds displaying inhibitory activity were further examined to ascertain their IC50 values against WalK. For the chosen compounds, inhibition against EvgS, EnvZ, PhoQ, and CpxA HKs was also assessed. These reactions involved the use of 1 µM HK, 40 µM ATP, and a 30 min incubation at 25 °C.
# EvgS (559–1197) D1009A = target: T2, EvgS (559–1197) D1009A (Escherichia coli, UniProt P30855, D1009A); experiment: Inhibition of EvgS autophosphorylation; type: biochemical, Escherichia coli K12; details: EvgS (559–1197) D1009A; 1 µM HK, 40 µM ATP, 30 min at 25 °C; read-out: IC50
# T2 construct: EvgS (559–1197) D1009A; His6 (C); made in house; host or cells: E. coli BL21(DE3)
# Procedure: as §1, §2
# CpxA = target: T3, CpxA (Escherichia coli, UniProt P0AE82); experiment: Inhibition of CpxA autophosphorylation; type: biochemical, Escherichia coli K12; details: CpxA; 1 µM HK, 40 µM ATP; read-out: IC50
# T3 construct: cytoplasmic regions of PhoQ (261-486) and CpxA (188-457); His6 (C); made in house; host or cells: E. coli BL21(DE3)
# Procedure: as §1, with “The” for “Autophosphorylation of WalK was conducted at 0.5 or 1 µM in a reaction mixture comprising 50 mM Tris-HCl (pH 8.5), 100 mM KCl, 5 mM MgCl2, 100 mM NH4Cl, 5% DMSO, and 40 µM ATP. The”
# as §2, with “These reactions involved the use of 1 µM HK, 40 µM ATP, and a 30 min incubation at 25 °C.” left out
# [1] = target: T4, WalK (207-611, B. subtilis) (Bacillus subtilis, UniProt Q45614); experiment: Affinity selection/mass spectrometry, competition with waldiomycin; type: binding; design: key to AS/MS: AS/MS + competitive inhibition of the binding of waldiomycin to WalK; − increased binding of waldiomycin to WalK; details: for increase of MS signal of the collected waldiomycin compared to only waldiomycin: compound 30 or 100 µM; for AS/MS: summary class, effect on binding of waldiomycin to WalK
# T4 construct: His6 (N); made in house; host or cells: E. coli BL21(DE3)
# Procedure: The affinity selection/mass spectrometry (AS/MS) is a method which can detect the binding of small compounds to proteins. This experiment was carried out following a previously established protocol (Fig. 5), with the exception of using Millipore 96-well filter plates (MSBVN1210) instead of MAHAN4510. In the experiment, 1 µM of WalK (207-611, B. subtilis, refer to Table S2) was combined and incubated with 5 µM of waldiomycin and competitor compounds in a reaction buffer. The buffer composition was as follows: 25 mM Tris-HCl (pH 8.0), 50 mM KCl, 50 mM NH4Cl, 5 mM MgCl2, 1 mM DTT, and 0.1% CHAPS. Following the incubation, the mixture was subjected to size-exclusion chromatography via centrifugation to eliminate free compounds. The protein that was eluted was then denatured by adding an equal volume of methanol/0.1% formic acid. The compounds that were subsequently released from the protein were detected using an LC/MS system. The concentrations of waldiomycin were calculated from the value of peak areas using calibration curve that covered the range of 1 nM to 1 µM (R^2 = 0.9991). The concentration of waldiomycin in the eluate of WalK and waldiomycin without competitor was 10.1 nM, and percentages to this value were calculated for other samples.
# T4 sequence (Q45614 207-611): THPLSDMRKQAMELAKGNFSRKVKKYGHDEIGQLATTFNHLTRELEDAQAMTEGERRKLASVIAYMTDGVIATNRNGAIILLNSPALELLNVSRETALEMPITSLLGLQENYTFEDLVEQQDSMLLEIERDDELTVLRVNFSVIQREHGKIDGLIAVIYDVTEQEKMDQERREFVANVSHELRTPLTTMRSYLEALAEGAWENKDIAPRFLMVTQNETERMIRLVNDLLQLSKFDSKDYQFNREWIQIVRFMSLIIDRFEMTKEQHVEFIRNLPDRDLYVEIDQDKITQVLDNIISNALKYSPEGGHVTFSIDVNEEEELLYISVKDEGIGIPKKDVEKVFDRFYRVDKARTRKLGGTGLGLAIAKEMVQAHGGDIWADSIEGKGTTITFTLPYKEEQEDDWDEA
# T1 sequence (Q45614 207-611): as above
# T3 sequence (P0AE82 188-457): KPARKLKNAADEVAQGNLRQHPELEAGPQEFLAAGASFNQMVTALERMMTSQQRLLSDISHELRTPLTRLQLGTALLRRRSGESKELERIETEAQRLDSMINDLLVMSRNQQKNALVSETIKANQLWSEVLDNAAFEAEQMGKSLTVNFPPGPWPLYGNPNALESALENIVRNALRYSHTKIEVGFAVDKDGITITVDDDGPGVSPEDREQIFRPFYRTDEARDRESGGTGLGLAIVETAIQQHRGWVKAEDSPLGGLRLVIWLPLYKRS
# T2 sequence (P30855 559-1197 D1009A): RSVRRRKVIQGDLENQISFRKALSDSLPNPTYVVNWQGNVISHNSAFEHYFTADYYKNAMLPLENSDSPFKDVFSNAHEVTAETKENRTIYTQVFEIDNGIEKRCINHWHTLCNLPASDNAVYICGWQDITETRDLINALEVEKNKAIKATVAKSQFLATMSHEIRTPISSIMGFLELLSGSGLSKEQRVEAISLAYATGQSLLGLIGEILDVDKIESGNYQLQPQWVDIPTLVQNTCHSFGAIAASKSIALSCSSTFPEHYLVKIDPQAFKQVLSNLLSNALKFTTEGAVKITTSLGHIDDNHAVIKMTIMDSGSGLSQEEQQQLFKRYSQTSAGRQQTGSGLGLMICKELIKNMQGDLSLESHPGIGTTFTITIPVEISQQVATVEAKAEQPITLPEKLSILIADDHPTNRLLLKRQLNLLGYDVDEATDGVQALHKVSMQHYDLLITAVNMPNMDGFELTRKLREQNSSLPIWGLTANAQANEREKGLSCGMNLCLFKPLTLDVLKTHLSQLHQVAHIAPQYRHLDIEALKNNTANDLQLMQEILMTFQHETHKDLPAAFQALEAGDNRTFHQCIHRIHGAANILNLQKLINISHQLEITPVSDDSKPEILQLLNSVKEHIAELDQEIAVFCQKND
Compound,IC50 (WalK; listed as C00015) [µM],inhibitory activity against WalK (WalK),WalK (WalK),IC50 (EvgS (559–1197) D1009A) [µM],IC50 (CpxA) [µM],"increase of MS signal of the collected waldiomycin compared to only waldiomycin ([1]; waldiomycin 5 µM, WalK 1 µM)",binding to WalK competitive with that of waldiomycin ([1]; in words),AS/MS [1],IC50 (WalK) [µM],"effect on the signal of waldiomycin ([1]; compound 30 and 100 µM, in words)","signal of waldiomycin compared to only waldiomycin with WalK ([1]; compound at 100 µM, waldiomycin 5 µM, WalK 1 µM)"
"O=C1C(Cl)=C(Nc2ccc(Cl)c(O)c2)C(=O)c2c(O)ccc(O)c21 [2h, 2-chloro-3-((4-chloro-3-hydroxyphenyl)amino)-5,8-dihydroxynaphthalene-1,4-dione]",12.6,comparable to waldiomycin,+,25.8,19.5,about twofold,not competitive; also recorded: enhanced the binding of waldiomycin to WalK,−,,,
"CC(C)(C)OC(=O)Nc1cccc(NC2=C(Cl)C(=O)c3c(O)ccc(O)c3C2=O)c1 [2l, tert-butyl (3-((3-chloro-5,8-dihydroxy-1,4-dioxo-1,4-dihydronaphthalen-2-yl)amino)phenyl)carbamate]",,comparable to waldiomycin,+,50,32.7,about twofold,not competitive; also recorded: enhanced the binding of waldiomycin to WalK,−,13,,
"Cc1noc2c1C(=O)c1c(O)ccc(O)c1C2=O [3b, 5,8-dihydroxy-3-methylnaphtho[2,3-d]isoxazole-4,9-dione]",,,+,109,104,,competitive; also recorded: competitively interacted with waldiomycin,+,186,reduced the signal of waldiomycin in a dose-dependent manner,about 10%
